Experimental data published in US7691985B2, “Skeletal-targeted radiation to treat bone-associated pathologies” (priority 1999, dated 2010).

Assays:
[1] = Stability of ^166Ho-DOTMP with and without stabilizer: radiochemical purity by ITLC, CEC, HPLC (Example 15); assay type: physicochemical
Procedure: Samples of ^166Ho-DOTMP were prepared according to the procedure in Example 1 using ascorbic acid, 55 mg/mL, as the stabilizer. Identical samples were prepared without ascorbic acid. The solutions were analyzed for radiochemical purity after 1 hour, 6 hours, 10 hours, 24 hours, and 48 hours, using Instant Thin Layer Chromatography (ILTC), Cation Exchange Chromatography (CEC) and High Performance Liquid Chromatography (HPLC).

[2] = Biodistribution study of ^166Ho-DOTMP in rats (Example 16); assay type: in vivo, Sprague Dawley rats; settings: rat, i.v.
Procedure: Sprague Dawley (S. D.) rats were injected intravenously (inj. i.v.) with a solution of ^166Ho-DOTMP (“Ho-DO”) containing ascorbic acid (asc) as a stabilizer. The animals were sacrificed and organs excised and counted in a radioactive well counter after decay to appropriate levels. Bone (femur) samples were counted and converted to a total bone percent injected dose using a factor of 25 times femur percent.
A second group of Sprague Dawley rats were injected intravenously with a solution of ^166Ho-DOTMP without having the stabilizer. The animals were sacrificed and organs excised and counted in a radioactive well counter after decay to appropriate levels. Bone (femur) samples were counted and converted to a total bone percent injected dose using a factor of 25 times femur percent.
FIG. 2 illustrates the data uptake base on the % injection dose. FIG. 3 illustrates the data uptake base on the % injection dose per gram(mass). FIG. 4 illustrates the data uptake base on the tissue/blood ratio. Abbreviations: Blo=blood; Tai=tail; Lun=lung; Liv=liver; Spl=spleen; Sto=stomach; Kid=kidneys; Int=intestines; Bon=bone; SD=standard deviation.

[3] = tested on: multiple myeloma; experiment: Single patient: 40 Gy ^153Sm-EDTMP, melphalan 200 mg/m^2 (Example 14); assay type: in vivo, human; settings: present tense
Procedure: The patient, a person with an original diagnosis of multiple myeloma and diagnosed with primary refractory disease, is given a trace dose of ^153Sm-EDTMP, and the 24 hr whole body uptake is calculated. Based on dosimetry calculations a therapeutic dose is designed to deliver 40 Gy to the marrow. After the level of ^153Sm in the patient fell to ≦3.6 mCi, the patient receives a dose of 200 mg/m^2 of melphalan (I.V.). The patient's stem cells are reinfused two days after the melphalan, with G-CSF and antibiotics, as needed.

[4] = ^153Sm-EDTMP 30-50 Gy with melphalan up to 200 mg/m^2, response and urinary tract side effects; assay type: in vivo; settings: 30-50 Gy with melphalan as high as 200 mg/m^2
[5] = tested on: rats inoculated with murine myeloma cells; settings: used with melphalan, followed by bone marrow transplant; cited from earlier work
[6] = tested on: multiple myeloma; settings: 140 mg/m^2 of body-surface area intravenously; cited from earlier work
[7] = 40 Gy to marrow, melphalan 200 mg/m^2, one patient

O=P([O-])(O)CN1CCN(CP(=O)([O-])O)CCN(CP(=O)(O)O)CCN(CP(=O)([O-])O)CC1.[166Ho+3] [Ho-DO only]
radiochemical purity, CEC ([1]; 1 hr): 99.0 | radiochemical purity, HPLC ([1]; 1 hr): 100 | radiochemical purity, ITLC ([1]; 1 hr): 99.2 | radiochemical purity, CEC ([1]; 6 hrs): 97.8 | radiochemical purity, HPLC ([1]; 6 hrs): 95.4 | radiochemical purity, ITLC ([1]; 6 hrs): 98.1 | radiochemical purity, CEC ([1]; 10 hrs): 97.8 | radiochemical purity, HPLC ([1]; 10 hrs): 94.9 | radiochemical purity, ITLC ([1]; 10 hrs): 97.5 | radiochemical purity, CEC ([1]; 24 hrs): 97.2 | radiochemical purity, HPLC ([1]; 24 hrs): 85.8 | radiochemical purity, ITLC ([1]; 24 hrs): 97.6 | radiochemical purity, CEC ([1]; 48 hrs): 97.1 | radiochemical purity, ITLC ([1]; 48 hrs): 96.5 | Percent Injection Dose, Blood [2]: 0.29 Percent Injection Dose | Percent Injection Dose, Intestine [2]: 3.81 Percent Injection Dose | Percent Injection Dose, Kidney [2]: 0.72 Percent Injection Dose | Percent Injection Dose, Liver [2]: 2.40 Percent Injection Dose | Percent Injection Dose, Lung [2]: 0.00 Percent Injection Dose | Percent Injection Dose, Spleen [2]: 0.56 Percent Injection Dose | Percent Injection Dose, Stomach [2]: 0.20 Percent Injection Dose | Percent Injection Dose, Tail [2]: 3.21 Percent Injection Dose | Percent Injection Dose/Gram, Blood [2]: 0.02 Percent Injection Dose/Gram | Percent Injection Dose/Gram, Intestine [2]: 0.23 Percent Injection Dose/Gram | Percent Injection Dose/Gram, Kidney [2]: 0.38 Percent Injection Dose/Gram | Percent Injection Dose/Gram, Liver [2]: 0.31 Percent Injection Dose/Gram | Percent Injection Dose/Gram, Lung [2]: 0.04 Percent Injection Dose/Gram | Percent Injection Dose/Gram, Spleen [2]: 1.03 Percent Injection Dose/Gram | Percent Injection Dose/Gram, Stomach [2]: 0.05 Percent Injection Dose/Gram | Percent Injection Dose/Gram, Tail [2]: 0.51 Percent Injection Dose/Gram | Tissue/Blood Ratio, Blood [2]: 1.00 | Tissue/Blood Ratio, Bone [2]: 296.80 | Tissue/Blood Ratio, Intestine [2]: 13.80 | Tissue/Blood Ratio, Kidney [2]: 22.84 | Tissue/Blood Ratio, Liver [2]: 18.90 | Tissue/Blood Ratio, Lung [2]: 2.34 | Tissue/Blood Ratio, Spleen [2]: 62.09 | Tissue/Blood Ratio, Stomach [2]: 3.24 | Tissue/Blood Ratio, Tail [2]: 31.33 | Percent Injection Dose/Gram, Bone ([2]; femur): 4.84 Percent Injection Dose/Gram | Percent Injection Dose, Bone ([2]; total bone = 25 times femur percent): 50.05 Percent Injection Dose

O=P([O-])(O)CN(CCN(CP(=O)([O-])O)CP(=O)(O)O)CP(=O)([O-])O.[153Sm+3] [^153Sm-EDTMP]
days post stem cell transplant to neutrophil engraftment (ANC >500) [3, 7]: Fourteen | days post transplant to platelet engraftment (>20,000) [3, 7]: twenty | response ([3]; five months post treatment, one patient): complete remission | total response rates [4]: > 90% | urinary tract side effects [4]: without significant urinary tract side effects | survival [5]: improves survival

N[C@@H](Cc1ccc(N(CCCl)CCCl)cc1)C(=O)O [melphalan, L-phenylalanine, 4-[bis(2-chloroethyl)amino]-]
patients with partial or complete remissions [6]: about 40%
